Laboratory results from patent US6395752B1, “Method of treating depression using 1-threo-methylphenidate” (Pharmaquest Limited, priority 1999, dated 2002).
Marks after values point to notes of the source that are not given here.

Assays:
[1] = Profile of Mood State (POMS) rating scale, randomized 4-phase cross-over study, intravenous administration; assay type: in vivo, healthy male volunteers; details: i.v.; for Vigor ratings: POMS Vigor-Activity; for Rank order of ratings for Tension, Depression and Anger: three components of Dysphoria, same order in each case
From the text: The Profile of Mood State (POMS) rating scale was used to estimate pharmacodynamic factors including Anger-Hostility, Confusion-Bewilderment, Depression-Dejection, Fatigue-Inertia, Tension-Anxiety, and Vigor-Activity. In addition composite scores were also produced for “Energy” (“Vigor-Activity” minus “Fatigue-Inertia”) and “Dysphoria” (“Anger-Hostility” plus “Depression-Rejection” plus “Tension-Anxiety”).

[2] = plasma; i.v. 10 mg d1-MPH; 11 healthy male volunteers; mean ± SD; cited from earlier work
[3] = after oral administration of the racemic drug; cited from earlier work
[4] = oral, cited from earlier work

| SMILES | Vigor ratings ([1]; healthy male volunteers) | Effect on "Energy" composite score ([1]; healthy male volunteers) | POMS rating for Fatigue-Inertia ([1]; healthy male volunteers) | Rank order of ratings for Tension, Depression and Anger [1] | t1/2 [2] | Absolute bioavailability (F) [3] | Hamilton depression scale decrease, subjects with minimal decrease ([4]; 3 subjects) | Hamilton depression scale decrease, subjects with marked decrease ([4]; 7 subjects) | Benefit in depressed patients ([4]; older, medically ill depressed patients, n=16) |
| --- | --- | --- | --- | --- | --- | --- | --- | --- | --- |
| COC(=O)[C@H](c1ccccc1)[C@H]1CCCCN1 [d-MPH, d-threo-methylphenidate] | significantly different from those for 1-MPH and placebo | not strongly energizing | significantly different from those after 1-MPH | 1-MPH<placebo<d1-MPH<d-MPH | – | – | – | – | – |
| COC(=O)[C@@H](c1ccccc1)[C@@H]1CCCCN1 [1-MPH, 2S,2′S-methyl 2-phenyl-2-(2′-piperidyl) acetate] | – | – | – | 1-MPH<placebo<d1-MPH<d-MPH | 3.61 ± 1.12^b | 0.05 | – | – | – |
| COC(=O)[C@H](c1ccccc1)[C@H]1CCCCN1 [d1-MPH, d1-threo-methylphenidate] | significantly different from those for 1-MPH and placebo | enhanced | – | 1-MPH<placebo<d1-MPH<d-MPH | – | – | < 30% | > 55% | statistically and clinically significant |
